Molecular target: Genome polyprotein (Hepatitis C virus)
Assay: Binding constant against hepatitis C virus (HCV) protease

| SMILES | Ki [nM] |
| --- | --- |
| CCSC[C@H](NC(=O)[C@H](CC1CCCCC1)NC(=O)[C@@H](NC(=O)[C@H](CC(C)C)NC(=O)[C@@H](CCC(=O)O)NC(=O)[C@H](CC(=O)O)NC(C)=O)[C@@H](C)CC)C(=O)O [(S)-4-((S)-2-Acetylamino-3-carboxy-propionylamino)-4-((R)-(S)-1-{1-[(R)-(R)-1-((S)-1-carboxy-2-ethylsulfanyl-ethylcarbamoyl)-2-cyclohexyl-ethylcarbamoyl]-2-methyl-butylcarbamoyl}-3-methyl-butylcarbamoyl)-butyric acid] | 5000 |
| CC[C@H](NC(=O)[C@H](CC1CCCCC1)NC(=O)[C@@H](NC(=O)[C@H](CC(C)C)NC(=O)[C@@H](CCC(=O)O)NC(=O)[C@H](CC(=O)O)NC(C)=O)[C@@H](C)CC)C(=O)O [2-[(S)-(S)-2-((R)-2-{(S)-2-[(R)-2-((S)-2-Acetylamino-3-carboxy-propionylamino)-4-(S)-carboxy-butyrylamino]-4-methyl-pentanoylamino}-3-methyl-pentanoylamino)-3-cyclohexyl-propionylamino]-butyric acid] | 600 |
| CC[C@H](C)[C@H](NC(=O)[C@H](CC(C)C)NC(=O)[C@@H](CCC(=O)O)NC(=O)[C@H](CC(=O)O)NC(C)=O)C(=O)N[C@@H](CC1CCCCC1)C(=O)N[C@@H](CSC)C(=O)O [(S)-4-((S)-2-Acetylamino-3-carboxy-propionylamino)-4-((R)-(S)-1-{1-[(R)-(R)-1-((S)-1-carboxy-2-methylsulfanyl-ethylcarbamoyl)-2-cyclohexyl-ethylcarbamoyl]-2-methyl-butylcarbamoyl}-3-methyl-butylcarbamoyl)-butyric acid] | 500 |
| CCCC[C@H](NC(=O)[C@H](CC1CCCCC1)NC(=O)[C@@H](NC(=O)[C@H](CC(C)C)NC(=O)[C@@H](CCC(=O)O)NC(=O)[C@H](CC(=O)O)NC(C)=O)[C@@H](C)CC)C(=O)O [2-[(S)-(S)-2-((R)-2-{(S)-2-[(R)-2-((S)-2-Acetylamino-3-carboxy-propionylamino)-4-(S)-carboxy-butyrylamino]-4-methyl-pentanoylamino}-3-methyl-pentanoylamino)-3-cyclohexyl-propionylamino]-hexanoic acid] | 2000 |

The next lines start with the values.

| Ki [nM] | SMILES |
| --- | --- |
| 120 | CC[C@H](C)[C@H](NC(=O)[C@H](CC(C)C)NC(=O)[C@@H](CCC(=O)O)NC(=O)[C@H](CC(=O)O)NC(C)=O)C(=O)N[C@@H](CC1CCCCC1)C(=O)N[C@@H](CS)C(=O)O [(S)-4-((S)-2-Acetylamino-3-carboxy-propionylamino)-4-((R)-(S)-1-{1-[(R)-(R)-1-((S)-1-carboxy-2-mercapto-ethylcarbamoyl)-2-cyclohexyl-ethylcarbamoyl]-2-methyl-butylcarbamoyl}-3-methyl-butylcarbamoyl)-butyric acid] |
| 80000 | CC[C@H](C)[C@H](NC(=O)[C@H](CC(C)C)NC(=O)[C@@H](CCC(=O)O)NC(=O)[C@H](CC(=O)O)NC(C)=O)C(=O)N[C@@H](CC1CCCCC1)C(=O)N[C@@H](CCS)C(=O)O [2-[(S)-(S)-2-((R)-2-{(S)-2-[(R)-2-((S)-2-Acetylamino-3-carboxy-propionylamino)-4-(S)-carboxy-butyrylamino]-4-methyl-pentanoylamino}-3-methyl-pentanoylamino)-3-cyclohexyl-propionylamino]-4-mercapto-butyric acid] |
| 130 | CCC[C@H](NC(=O)[C@H](CC1CCCCC1)NC(=O)[C@@H](NC(=O)[C@H](CC(C)C)NC(=O)[C@@H](CCC(=O)O)NC(=O)[C@H](CC(=O)O)NC(C)=O)[C@@H](C)CC)C(=O)O [(S)-2-[(S)-2-((R)-2-{(S)-2-[(R)-2-((S)-2-Acetylamino-3-carboxy-propionylamino)-4-(S)-carboxy-butyrylamino]-4-methyl-pentanoylamino}-3-methyl-pentanoylamino)-3-cyclohexyl-propionylamino]-pentanoic acid] |

Reference: BindingDB's records for doi:10.1021/jm030040o (Schering-Plough Research Institute, 2003)
